Measurements reported in paper PMC12424289, “Programmable Nanostructure Assembly of a Paclitaxel Derivative Enables Tunable Anticancer Therapy via Hydrogen Bond Engineering” (ACS Nano, 2025).

Assays:
[1] = Solid-state storage stability of PTP; type: physicochemical; settings: stored at −20 °C for 6 months; initial purity 98.5%
Experimental: For solid-state stability, 5.0 mg PTP was sealed in glass bottles and stored under controlled conditions in stability chambers (MMM Climacell-E, Germany). The samples were stored at 40 ± 2 °C and 75 ± 5% relative humidity, and 25 ± 2 °C and 60 ± 5% RH. Additional samples were stored at 4 °C and −20 °C in a refrigerator (BCD-610W, Siemens, Germany). At scheduled intervals, triplicate samples from each condition were analyzed for purity by HPLC.

tubulin = assay: Isothermal titration calorimetry with tubulin; type: binding; settings: tubulin 180 μM titrated into 25 μM compound
Experimental: ITC experiments were performed using a Nano-ITC (TA Instruments, USA) with all samples degassed for 8 min prior to measurement. Experiments were conducted under stirring at 350 rpm. To account for background signals, control experiments were conducted and subtracted from the test data. The resulting heat values were analyzed using an independent model to extract thermodynamic parameters. For tubulin binding studies, solutions were prepared in PEM buffer containing 5% (v/v) DMSO. In each experiment, 400 μL of the […] was loaded into the sample cell, and 400 μL of PEM buffer with 5% (v/v) DMSO was placed in the reference cell. Tubulin solution (180 μM) was titrated into the sample cell in 25 injections of 2 μL each at 4 °C. A control titration of tubulin into PEM buffer (5% DMSO) was performed to account for dilution effects. To assess interactions between PTP and excipients, PTP dispersions (25 μM) were loaded into the sample cell, and water was used in the reference cell. PEG400 solution (6.0 mg·mL^–1) was titrated into a 2.0 mg·mL^–1 PTP dispersion, and HA (2.7 mg·mL^–1) into a 1.0 mg·mL^–1 PTP dispersion. Both titrations were performed at 25 °C with 25 injections of 2 μL each. Control experiments were performed by titrating PEG400 or HA into water to correct for nonspecific heat effects.

Stability in rat plasma = type: in vitro ADME
Experimental: For plasma stability studies, a PTP or PTP@PEG dispersion (1.2 mg·mL^–1, PTP-equivalent) was diluted with plasma to a final concentration of 100.0 μg·mL^–1. Plasma was obtained from male rat blood by centrifugation (1600 × g, 15 min). Aliquots (100 μL each) were incubated at 37 °C with agitation at 100 rpm, and samples were collected at designated time points in triplicate. Proteins were precipitated by adding 200 μL acetonitrile, followed by vortex mixing and centrifugation at 17 000 rpm and 4 °C for 30 min. The resulting supernatants were analyzed by HPLC.

[2] = tested on: human ovarian SKOV3 cells; assay: CCK8 antiproliferation assay, SKOV3; type: cell-based; settings: SK-OV-3, SKOV3, 48 h treatment
Experimental: The mouse breast cancer cell line 4T1 and the human ovarian cancer cell line SKOV3 were cultured in RPMI 1640 medium supplemented with 10% fetal bovine serum, 100 units·mL^–1 penicillin, and 100 μg·mL^–1 streptomycin. The human lung cancer cell line A549 and the luciferase-expressing human colorectal carcinoma cell line HCT116-Luc were cultured in high-glucose DMEM medium supplemented with 10% fetal bovine serum, 100 units·mL^–1 penicillin, and 100 μg·mL^–1 streptomycin. All cell lines were maintained at 37 °C in a Steri-Cycle 371 incubator (Thermo Scientific, USA) with a humidified atmosphere of 5% CO2. Only cells between passages 5 and 15 were used for cell-based experiments.
The antiproliferative activity of PTP was evaluated using the Cell Counting Kit-8 (CCK8) assay. PTX solution served as a positive control. Cell suspensions were prepared at a density of 3 × 10^4 cells·mL^–1 and seeded in 96-well plates at a volume of 100 μL per well. The plates were incubated for 24 h to allow cell attachment and growth. Subsequently, the culture media were replaced with fresh media containing varying concentrations of PTX or PTP solutions (100 μL per well), and the cells were incubated for an additional 48 h (n = 3). Control wells received fresh culture media alone (n = 3). […] Finally, the absorbance was measured at 450 nm using a microplate reader (Synergy H1, BioTek, USA). […]

subcutaneous 4T1 tumors = assay: Antitumor efficacy and safety in subcutaneous 4T1 tumor model; type: in vivo; settings: 4T1 model, iv 10.0 mg·kg^–1 PTX equivalent, five doses
Experimental: For pharmacodynamic evaluation, female Balb/c mice (18–22 g, n = 6 per group) bearing subcutaneous 4T1 tumors (approximately 50 mm^3) received intravenous injections every other day for five doses at 10.0 mg·kg^–1 (PTX equivalent). Tumor volume and body weight were monitored daily until day 14, when tumors were excised and photographed. At study termination (day 14), major organs (heart, liver, spleen, lungs, and kidneys) were collected from these mice. The organs were fixed in 4% paraformaldehyde, dehydrated with ethanol, and cleared with xylene. Afterward, the tissues were embedded in paraffin wax and sectioned after dipping wax operation at 60 °C. The sections were then stained with hematoxylin and eosin for histological examination.

CC(=O)O[C@H]1C(=O)[C@@]2(C)[C@H]([C@H](OC(=O)c3ccccc3)[C@]3(O)C[C@H](OC(=O)[C@H](OC(=O)CCP(=O)(O)O)[C@@H](NC(=O)c4ccccc4)c4ccccc4)C(C)=C1C3(C)C)[C@]1(OC(C)=O)CO[C@@H]1C[C@@H]2O [PTP, PTX-2’–OOC-P]
purity after storage [1]: 98.1%
molar ratio of tubulin to compound (tubulin; ITC): 1.6
Gibbs free energy change (ΔG) (tubulin; 5% DMSO, 4 °C): −26.8 kJ·mol^–1
degradation faster than PTP@PEG (Stability in rat plasma; rat plasma, 37 °C): 1.2 fold
degradation rate constant (k) in plasma (Stability in rat plasma; rat plasma, 37 °C, 100 μg·mL^–1 PTP-equivalent): 0.23 h^–1
parent compound left (Stability in rat plasma; rat plasma, 37 °C, after 10 h): 10.4%
degraded in plasma (Stability in rat plasma; within 10 h, 100.0 μg·mL^–1): approximately 90%
IC50 [2]: 31.2 nM
safety: body weight and renal histology (subcutaneous 4T1 tumors): renal inflammation
